This is an account of results in US10392392B2, “Substituted imidazo[1,2-B]pyridazines as protein kinase inhibitors” (Tolero Pharmaceuticals, Inc., priority 2011, dated 2019).

Series [1] can be described thus: Pharmacokinetic studies of PC-3 tumor-burdened mice. Format: in vivo, mouse. The note with it: 200 mg/kg dosing.
The test system of a further series is NIH-3T3/PIM-2 xenografts. Briefly: NIH-3T3/PIM-2 over-expression tumor xenograft. Format: in vivo, mouse. The note with it: mice bearing NIH-3T3 or NIH-3T3/PIM-2 xenografts. An excerpt:
(§1) Male and female Nu/Nu mice were purchased from Harlan Sprague Dawley (Indianapolis, Ind.). Female Nu/Nu mice were used for all xenograft evaluations with the exception of the PC-3 xenografts where male Nu/Nu mice were used. Cell lines were expanded in vitro in complete media, and if adherent were harvested by trypsin-EDTA, centrifuged and resuspended in PBS 1:1 with Matrigel (BD Bioscienes). Cells were inoculated subcutaneously in the right hind flank of mice. When tumors reached 100-200 mm^3 by caliper measurement, mice were randomized and dosing of SGI-9481 or vehicle control began and continued every day for 5 days (QD×5) with 2 days off for 18-21 days. Tumor volumes and body weights were determined twice a week, and tumor weights were measured at the completion of the translational xenograft studies.
(§2) The prostate cancer cell line 22RV1 engineered to over-express PIM-1 as previously described (Mumenthaler, et al, Mol. Cancer Ther., 2009, 8(10)2882-93) was evaluated in vivo. A second model engineered to over-express PIM-2 was established using the NIH-3T3 mouse fibroblast cell line.

For series [2], the system named is ML-2 cells (wild-type FLT3) xenografts. Briefly: ML-2 (wild-type FLT3) mouse xenograft. It is filed as in vivo.
From the text: as §1

In another series the test system is UM-UC-3 cells. Briefly: Colony formation assay, UM-UC-3. Format: cell-based. As for the experimental part:
(§3) For shRNA growth experiments, 500 UM-UC-3 cells were seeded in a 12-well plate 48 hours post-transduction and cultured for 8-10 days at 37° C. in 5% CO2. Cells were fixed with 4% paraformaldehyde in PBS, washed twice with PBS, and stained with a crystal violet solution (1% crystal violet, 10% ethanol in water). Stained cells were washed thrice with water, and imaged after drying on a GelCount colony counter (Oxford Optronix Ltd., Oxford, UK). Total staining intensity per well was determined by lysis of cells with 200 μl of Triton X-100 lysis buffer (1% Triton X-100, 50 mM Tris-HCl pH 7.4, 150 mM NaCl, 1 mM EDTA). Lysates (100 μl) from each well were transferred to a clear 96-well plate and absorbance at 560 nm was determined on an Envision microplate reader. IC50 values were determined using GraphPad Prism software. For compound treated PC-3 and UM-UC-3, cells were seeded and stained as above, but were incubated with various concentrations of test compound or DMSO one day after seeding.
(§4) Translational models were also explored for PIM dependency using shRNA knockdown. The UM-UC-3 urinary epithelial bladder carcinoma cell line was used to verify and validate dependency on PIM-1 for growth. […] Reduction of PIM-1 mRNA and growth also were observed using both PIM-1 and PIM-2 shRNA in the androgen-independent prostate carcinoma cell line PC-3 (data not shown).

The test system of another series is PC-3 xenograft tumors. Briefly: Established PC-3 mouse xenograft tumors. It is filed as in vivo. The note with it: oral dosing of 200 mg/kg.
From the text: as §1, with “When tumors reached 100-200 mm^3 by caliper measurement, mice were randomized and dosing of SGI-9481 or vehicle control began and continued every day for 5 days (QD×5) with 2 days off for 18-21 days.” left out

The test system of a further series is UM-UC-3 xenograft tumors. Briefly: Established UM-UC-3 mouse xenograft tumors. It is filed as in vivo. The following applies: oral dosing of 200 mg/kg.
From the text: as §1, with “When tumors reached 100-200 mm^3 by caliper measurement, mice were randomized and dosing of SGI-9481 or vehicle control began and continued every day for 5 days (QD×5) with 2 days off for 18-21 days.” left out

A further series has as its system 22RV1/PIM-1 xenografts. The series is described as follows: 22RV1/PIM-1 over-expression tumor xenograft. It is filed as in vivo, mouse. The following applies: mice bearing 22RV1 or 22RV1/PIM-1 xenografts.
From the text: as §1, §2

A further series has as its system PC-3 cells. Briefly: Colony formation assay, PC-3. It is filed as cell-based. The method, then:
as §3, §4

A further series deals with MV-4-11. The series is described as follows: In vitro viability assay, MV-4-11. It is filed as cell-based. As for the experimental part: (§5) Adherent or suspension cancer cell lines were seeded at 2000-5000 cells/well in a 96-well plate, or 1000-2000 cells/well in a 384-well plate. Suspension cells were treated with drug the same day as seeding, while adherent cells were incubated overnight at 37° C. in 5% CO2 prior to drug treatment. All cells were treated for 72 hours, then lysed with ATPlite (Perkin Elmer) and measured on an Envision microplate reader. IC50 values were determined using GraphPad Prism software.
(§6) Over 35 cell lines were tested, and the most sensitive cell lines from various indications were selected and verified by multiple EC50 determinations (FIG. 6). […] Anti-proliferative activity using PIM-2 shRNA against FLT3-ITD driven leukemia lines has been observed (Adam (2006) Cancer Res 66:3828-35 data not shown).

Another series relates to MOLM-13. The series is described as follows: In vitro viability assay, MOLM-13. Format: cell-based. As for the experimental part: as §5, §6

On to `CC(C)(O)[C@H]1CC[C@H](Nc2ccc3ncc(-c4cccc(C(F)(F)F)c4)n3n2)CC1` [Compound 8-31], for which the plasma levels result in [1] was “above the in vitro proliferation EC50”. Also, in series [1], the tumor tissue levels entry was “above the in vitro proliferation EC50”. The “changes in body weight” value in the series on NIH-3T3/PIM-2 xenografts and in the series on 22RV1/PIM-1 xenografts was “No significant changes” each time. In addition, the tumor growth entry in [2] is “significant tumor growth inhibition”. Besides, the colony growth entry in the series with UM-UC-3 cells and with PC-3 cells was “reduced” each time. Also, the “changes in body weight or gross adverse toxicity” value in the series on PC-3 xenograft tumors and in the series with UM-UC-3 xenograft tumors was “no significant changes” each time. Besides, the “tumor growth measured by volume (caliper) and by final tumor weight” value in the series with PC-3 xenograft tumors and with UM-UC-3 xenograft tumors was “significantly reduced” in each case.
Regarding `CC(C)(O)[C@H]1CC[C@H](Nc2ccc3ncc(-c4cccc(C(F)(F)F)c4)n3n2)CC1` [SGI-9481], the “sensitivity of cell line” value in the series with MV-4-11 and in the series on MOLM-13 was “particularly sensitive” throughout.
